“And” between values parts separate entries of the source, which are not always exact repeats. Equal values may be shown once. “Also recorded” adds a separate entry of the source.
Experiments:
SKOV3ip1 [1] = assay: Tumor cell proliferation (PCNA) in orthotopic SKOV3ip1 tumors; type: in vivo, mice; conditions: compared to controls
Description: (§1) Analysis of tumor microvessel density (CD31) and proliferation (PCNA). Microvessel density analysis was performed by immunostaining for CD31 antigen in orthotopic tumors as previously described (Halder et al., 2006). Briefly, frozen slides were rehydrated in acetone, blocked for endogenous peroxidases with H2O2 in methanol, and incubated overnight at 4° C. with rat anti-mouse m-CD31 antibodies (1:800; BD Bioscience, Pharmingen, San Jose, Calif.). The following day, slides were incubated with appropriate secondary antibody and detected with DAB substrate. Proliferation was assessed by staining for PCNA on paraffin slides as previously reported (Halder et al., 2006). After deparaffinization and rehydration, slides were heated in microwave at 98° C. for 10 min in 0.1M citrate buffer (pH 6.0) for antigen retrieval, blocked for endogenous peroxidases, and then incubated with fragment blocker (1:10; Jackson Immunoresearch Lab., West Grove, Pa.) overnight at 4° C. to reduce murine antigen interference. Following day, slides were incubated with primary antibody (1:50; anti-PCNA, PC-10, mouse IgG, Dako, Carpinteria, Calif.) for 4 hours at RT, washed with PBS, and re-incubated for 1 hour at RT with appropriate secondary. Detection was performed with DAB substrate. Quantification of MVD and proliferation was performed as previously described (Halder et al., 2006).

SKOV3ip1 [2] = assay: IL-8 siRNA therapy in orthotopic murine ovarian cancer model, SKOV3ip1; type: in vivo, mice
Source text: (§2) Cell lines and cultures. The derivation and source of the epithelial ovarian cancer cell lines HeyA8 and SKOV3ip1 have been previously described (Halder et al., 2006; Landen et al., 2005). The taxane-resistant cell line, SKOV3ip2.TR (a gift from Dr. Isaiah J. Fidler, M.D. Anderson Cancer Center [MDACC], Houston, Tex.), was derived from the SKOV3ip1 cells following serial passages in media containing paclitaxel. All cell lines were maintained and propagated in RPMI-1640 media supplemented with 15% fetal bovine serum and 0.1% gentamicin sulfate (Gemini Bioproducts, Calabasas, Calif.). SKOV3ip2.TR media also contained 100-150 ng/ml paclitaxel. All experiments were performed at 60-80% confluency and cell lines routinely tested for Mycoplasma. For in vivo experiments, cells were trypsinized, centrifuged at 1000 rpm at 4° C. for 7 minutes, washed twice with HBSS, and resuspended at a concentration of 1.25×10^6 cells/ml (HeyA8) and 5×10^6 cells/ml (SKOV3ip1 and SKOV3ip2.TR).
(§3) Preparation of liposomal siRNA for in vivo delivery. For all in vivo experiments, siRNA constructs were incorporated into neutral liposomes (DOPC: 1,2-dioleoyl-sn-glycero-3-phosphatidylcholine), lyophilized, and stored at −20° C. (Landen et al., 2005). Prior to in vivo delivery, siRNA-DOPC preparations were resuspended with PBS to appropriate concentrations.
(§4) IL-8 siRNA therapy in an orthotopic murine ovarian cancer model. Female athymic nude mice were purchased from the National Cancer Institute-Frederick Cancer Research and Development Center (Frederick, Md.) and housed in specific pathogen-free conditions. […]
(§5) Development and characterization of the orthotopic murine model of advanced ovarian cancer used in these experiments has been previously described (Halder et al., 2006; Landen et al., 2005). […] Mice were monitored daily for signs of adverse effects and sacrificed when moribund. Tumor weights, number of tumor nodules, pattern of disease spread, presence and amount of ascites, and mouse weights were recorded at necropsy. […]

HeyA8 [3] = assay: Tumor cell proliferation (PCNA) in orthotopic HeyA8 tumors; type: in vivo, mice; conditions: compared to controls
Description: as §1

SKOV3ip1 [4] = assay: Tumor microvessel density (CD31) in orthotopic SKOV3ip1 tumors; type: in vivo, mice; conditions: CD31 staining
Description: as §1

SKOV3ip2.TR = assay: IL-8 siRNA therapy in orthotopic murine ovarian cancer model, taxane-resistant SKOV3ip2.TR; type: in vivo, mice
Source text: as §2, §3, §4, §5

HeyA8 [5] = assay: Tumor microvessel density (CD31) in orthotopic HeyA8 tumors; type: in vivo, mice; conditions: CD31 staining
Description: as §1

HeyA8 [6] = assay: IL-8 siRNA therapy in orthotopic murine ovarian cancer model, HeyA8; type: in vivo, mice
Source text: as §2, §3, §4, §5

IL-8 = assay: Secreted IL-8 protein by ELISA after in vitro siRNA transfection; type: cell-based, human; conditions: for IL-8 protein levels reduced by: ELISA 36-48 hours after siRNA transfection
Source text: as §2
SiRNA and in vitro transfections. IL-8 targeting siRNA purchased from Dharmacon (Lafayette, Colo.) was used to silence IL-8 expression in ovarian cancer cell lines (target sequence: GCCAAGGAGUGCUAAAGAA—SEQ ID NO:1). The sequence of the sense strand of the IL-8 siRNA is […] (SEQ ID NO:39) and the sequence of the antisense strand of the IL-8 siRNA is […] (SEQ ID NO:40). […] For in vitro transfections, 2×10^5 cells/well were plated into 6-well plates. The following day, cells were washed with PBS and incubated with 5 μg siRNA (IL-8 or control) with 30 μl of RNAiFect transfection reagent (Qiagen, Valencia, Calif.) in serum-containing media overnight at 37° C. Media was changed 24 hours after transfection and replaced with appropriate media.
mRNA and protein IL-8 expression analysis for in vitro transfections. The expression of IL-8 in vitro was determined with RT-PCR and ELISA 36-48 hours after siRNA transfection. For RT-PCR analysis, RNA was isolated according to manufacturer's protocol (Ambion RNAqueous Kit, Ambion, Austin, Tex.), transcribed into cDNA, and amplified: 94° C.×2 min, 94° C.×30 sec, 61° C.×30 sec, 72° C. 2 min, repeated for 21 cycles, and 72° C.×7 min (Primers: IL-8 sense […] (SEQ ID NO:48); IL-8 anti-sense […] (SEQ ID NO:49); GAPDH sense GAGCCACATCGCTCAGAC (SEQ ID NO:50); GAPDH anti-sense CTTCTCATGGTTCACACCC (SEQ ID NO:51)). For ELISA, cells were treated with serum-free media day prior to analysis and IL-8 protein levels were quantified using a commercially available ELISA kit (R&D Systems, Minneapolis, Minn.). All experiments were performed in duplicate and control siRNA was used for comparison.

HeyA8 cell line = assay: Tumor cell invasion in vitro; type: cell-based, human
IL-8 mRNA = IL-8 mRNA expression by RT-PCR after in vitro siRNA transfection; type: cell-based, human; conditions: RT-PCR 36-48 hours after siRNA transfection, compared to control siRNA
Source text: as §2
SiRNA and in vitro transfections. […]
mRNA and protein IL-8 expression analysis for in vitro transfections. The expression of IL-8 in vitro was determined with RT-PCR and ELISA 36-48 hours after siRNA transfection. […] For ELISA, cells were treated with serum-free media day prior to analysis and IL-8 protein levels were quantified using a commercially available ELISA kit (R&D Systems, Minneapolis, Minn.). […]

MMP2 = MMP2 expression after IL-8 siRNA transfection in vitro; type: cell-based, human; conditions: HeyA8 and SKOV3ip1 cell lines; following siRNA transfection in vitro
MMP9 = MMP9 expression after IL-8 siRNA transfection in vitro; type: cell-based, human; conditions: HeyA8 and SKOV3ip1 cell lines; following siRNA transfection in vitro
[7] = HeyA8 cells, media collected at various time points

CC(=O)O[C@@]12CO[C@@H]1C[C@H](O)[C@@]1(C)C(=O)[C@H](O)C3=C(C)[C@@H](OC(=O)[C@H](O)[C@@H](NC(=O)OC(C)(C)C)c4ccccc4)C[C@@](O)([C@@H](OC(=O)c4ccccc4)[C@H]21)C3(C)C [docetaxel]
tumor cell proliferation, PCNA staining (in words) (SKOV3ip1 [1]): effective in reducing proliferation; also recorded: decreased tumor cell proliferation | tumor burden, average number of tumor nodules (in words) (SKOV3ip1 [2]; compared to controls): reduced tumor burden | tumor cell proliferation, PCNA staining (in words) (HeyA8 [3]): effective in reducing proliferation; also recorded: decreased tumor cell proliferation | effect on MVD / tumor angiogenesis (in words) (SKOV3ip1 [4]): Minimal effects | tumor growth reduction (tumor weight) (SKOV3ip2.TR; SKOV3ip2.TR taxane-resistant, compared to controls, docetaxel 35 μg): 11% | effect on MVD / tumor angiogenesis (in words) (HeyA8 [5]): Minimal effects | tumor burden, average number of tumor nodules (in words) (HeyA8 [6]; compared to controls): reduced tumor burden

IL-8 siRNA: IL-8 targeting siRNA from Dharmacon; sense GCCAAGGAGUGCUAAAGAAUU (SEQ ID NO:39), antisense UUCUUUAGCACUCCUUGGCUU (SEQ ID NO:40) (incorporated into neutral DOPC liposomes, further chemistry not given here)
No. nodules (mean ± SE) (SKOV3ip1 [2]): 21.0 ± 7.3 | Tumor incidence (%) (SKOV3ip1 [2]): 70% | IL-8 protein levels reduced by (IL-8; HeyA8): 79% and 80% | IL-8 returning to baseline, time after transfection (IL-8; [7]): ≤ 96 h | Maximum down regulation of IL-8, time after transfection (IL-8; [7]): 48 h | IL-8 protein levels reduced by (IL-8; SKOV3ip1): 81% and 80% | tumor cell invasion in vitro (HeyA8 cell line): decreased tumor cell invasion | IL-8 mRNA expression (IL-8 mRNA; HeyA8): significantly reduced; also recorded: significantly decreased | IL-8 mRNA expression (IL-8 mRNA; SKOV3ip1): significantly reduced; also recorded: significantly decreased | No. nodules (mean ± SE) (SKOV3ip2.TR; SKOV3ip2.TR): 21.9 ± 3.4 | Tumor incidence (%) (SKOV3ip2.TR; SKOV3ip2.TR): 90% | No. nodules (mean ± SE) (HeyA8 [6]): 3.4 ± 0.8 | Tumor incidence (%) (HeyA8 [6]): 100% | MMP2 expression (MMP2): decreased | MMP9 expression (MMP9): decreased
